Like-named read-outs stand apart in the source and are kept apart here.
Target: T1, soybean LOX type 1b (sLOX-1) (Glycine max, UniProt P08170)
T1 sequence (P08170 1-839): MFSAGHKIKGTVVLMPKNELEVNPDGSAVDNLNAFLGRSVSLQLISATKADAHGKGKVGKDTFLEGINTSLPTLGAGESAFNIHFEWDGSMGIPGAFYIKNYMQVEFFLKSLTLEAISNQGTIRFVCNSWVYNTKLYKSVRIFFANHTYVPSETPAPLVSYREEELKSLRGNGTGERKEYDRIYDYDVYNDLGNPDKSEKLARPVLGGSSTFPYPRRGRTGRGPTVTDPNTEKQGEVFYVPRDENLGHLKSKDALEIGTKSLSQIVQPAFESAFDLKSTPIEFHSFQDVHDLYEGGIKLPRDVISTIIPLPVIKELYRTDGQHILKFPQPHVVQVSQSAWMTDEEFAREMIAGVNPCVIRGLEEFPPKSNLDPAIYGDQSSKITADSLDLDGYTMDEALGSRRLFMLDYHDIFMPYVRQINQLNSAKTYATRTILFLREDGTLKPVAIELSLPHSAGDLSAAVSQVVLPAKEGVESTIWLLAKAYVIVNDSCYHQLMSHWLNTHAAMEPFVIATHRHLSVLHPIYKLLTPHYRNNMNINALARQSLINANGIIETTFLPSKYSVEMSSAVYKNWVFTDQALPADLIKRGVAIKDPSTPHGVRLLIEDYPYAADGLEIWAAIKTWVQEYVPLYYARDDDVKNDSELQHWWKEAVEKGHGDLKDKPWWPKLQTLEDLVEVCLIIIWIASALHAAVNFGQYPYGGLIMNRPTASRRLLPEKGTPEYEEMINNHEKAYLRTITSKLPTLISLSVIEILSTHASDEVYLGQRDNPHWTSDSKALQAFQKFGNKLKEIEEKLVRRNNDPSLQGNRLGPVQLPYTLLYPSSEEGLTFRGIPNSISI
Experiment: Soybean lipoxygenase inhibition study in vitro
Format: biochemical
Protocol: For the evaluation of lipoxygenase inhibition soybean LOX type 1b was used as reported previously. The selection was based on the structural and functional similarity of sLOX-1 with mammalian LOX [36, 50, 51, 52] which makes it the most commonly used LOX enzyme in drug screening, followed by sLOX-3 [40].
The assay conditions were as previously reported. Different compound concentrations were used for the calculation of IC50 values. The experiments were performed in triplicate.

[1] = printed as negative values (−log of IC50 in µM), read-out: pIC50 (converted)
[2] = soybean LOX type 1b, means of three determinations, deviation <10% of the mean, read-out: IC50
[3] = Table 6, unit inferred, same values as Table 5, read-out: IC50

SMILES | IC50 [1] | IC50 [2] | IC50 [3]
COc1ccc2nc(NC(=O)CC/C(C)=C/Cc3c(O)c4c(c(C)c3OC)COC4=O)sc2c1 [Compound 11, (E)-6-(4-Hydroxy-6-methoxy-7-methyl-3-oxo-1,3-dihydroisobenzofuran-5-yl)-N-(6-methoxybenzo[d]thiazol-2-yl)-4-methylhex-4-enamide] | 156 µM | 156 µM | 156 µM
COc1c(C)c2c(c(O)c1C/C=C(\C)CCC(=O)Nc1nc(-c3ccncc3)cs1)C(=O)OC2 [Compound 7, (E)-6-(4-Hydroxy-6-methoxy-7-methyl-3-oxo-1,3-dihydroisobenzofuran-5-yl)-4-methyl-N-(4-(pyridin-4-yl)thiazol-2-yl)hex-4-enamide] | 78.7 µM | 78.8 µM | –
COc1c(C)c2c(c(O)c1C/C=C(\C)CCC(=O)Nc1nc(-c3ccccn3)cs1)C(=O)OC2 [Compound 9, (E)-6-(4-Hydroxy-6-methoxy-7-methyl-3-oxo-1,3-dihydroisobenzofuran-5-yl)-4-methyl-N-(4-(pyridin-2-yl)thiazol-2-yl)hex-4-enamide] | 2.5 µM | 2.5 µM | 2.5 µM
COc1c(C)c2c(c(OC)c1C/C=C(\C)CCC(=O)Nc1nccs1)C(=O)OC2 [Compound 15, (E)-6-(4,6-Dimethoxy-7-methyl-3-oxo-1,3-dihydroisobenzofuran-5-yl)-4-methyl-N-(thiazol-2-yl)hex-4-enamide] | – | 96.3 µM | –
COc1c(C)c2c(c(O)c1C/C=C(\C)CCC(=O)Nc1nc(-c3cccnc3)cs1)C(=O)OC2 [Compound 8] | 89.9 µM | 90 µM | 90 µM
COc1c(C)c2c(c(O)c1C/C=C(\C)CCC(=O)Nc1nc3c(s1)CCCC3)C(=O)OC2 [Compound 12, (E)-6-(4-Hydroxy-6-methoxy-7-methyl-3-oxo-1,3-dihydroisobenzofuran-5-yl)-4-methyl-N-(4,5,6,7-tetrahydrobenzo[d]thiazol-2-yl)hex-4-enamide] | – | 61.2 µM | –
COc1c(C)c2c(c(O)c1C/C=C(\C)CCC(=O)Nc1nc3c(s1)CCCCC3)C(=O)OC2 [Compound 13, (E)-6-(4-Hydroxy-6-methoxy-7-methyl-3-oxo-1,3-dihydroisobenzofuran-5-yl)-4-methyl-N-(5,6,7,8-tetrahydro-4H-cyclohepta[d]thiazol-2-yl)hex-4-enamide] | – | 25 µM | –

The remaining lines, values ahead:

IC50 [1] | IC50 [2] | IC50 [3] | SMILES
89.9 µM | 90 µM | – | COc1c(C)c2c(c(O)c1C/C=C(\C)CCC(=O)Nc1nc3ccccc3s1)C(=O)OC2 [Compound 10, (E)-N-(Benzo[d]thiazol-2-yl)-6-(4-hydroxy-6-methoxy-7-methyl-3-oxo-1,3-dihydroisobenzofuran-5-yl)-4-methylhex-4-enamide]
43.8 µM | 43.7 µM | – | COc1c(C)c2c(c(O)c1C/C=C(\C)CCC(=O)Nc1nc(C)c(C)s1)C(=O)OC2 [Compound 3, (E)-N-(4,5-Dimethylthiazol-2-yl)-6-(4-hydroxy-6-methoxy-7-methyl-3-oxo-1,3-dihydroisobenzofuran-5-yl)-4-methylhex-4-enamide]
– | 90 µM | – | COc1c(C)c2c(c(OC)c1C/C=C(\C)CCC(=O)Nc1ncc(C)s1)C(=O)OC2 [Compound 16, (E)-6-(4,6-Dimethoxy-7-methyl-3-oxo-1,3-dihydroisobenzofuran-5-yl)-4-methyl-N-(5-methylthiazol-2-yl)hex-4-enamide]
31.3 µM | 31.2 µM | 31.2 µM | COc1c(C)c2c(c(O)c1C/C=C(\C)CCC(=O)Nc1nc(C)cs1)C(=O)OC2 [Compound 4, (E)-6-(4-Hydroxy-6-methoxy-7-methyl-3-oxo-1,3-dihydroisobenzofuran-5-yl)-4-methyl-N-(4-methylthiazol-2-yl)hex-4-enamide]
26.2 µM | 26.3 µM | – | COc1c(C)c2c(c(O)c1C/C=C(\C)CCC(=O)Nc1nccs1)C(=O)OC2 [Compound 1, (E)-6-(4-Hydroxy-6-methoxy-7-methyl-3-oxo-1,3-dihydroisobenzofuran-5-yl)-4-methyl-N-(thiazol-2-yl)hex-4-enamide]
– | 31.2 µM | – | COc1c(C)c2c(c(O)c1C/C=C(\C)CCC(=O)Nc1nc3c(s1)CCC3)C(=O)OC2 [Compound 14, (E)-N-(5,6-Dihydro-4H-cyclopenta[d]thiazol-2-yl)-6-(4-hydroxy-6-methoxy-7-methyl-3-oxo-1,3-dihydroisobenzofuran-5-yl)-4-methylhex-4-enamide]
30 µM | 30 µM | – | CCOC(=O)Cc1csc(NC(=O)CC/C(C)=C/Cc2c(O)c3c(c(C)c2OC)COC3=O)n1 [Compound 6, (E)-Ethyl-2-(2-(6-(4-hydroxy-6-methoxy-7-methyl-3-oxo-1,3-dihydroisobenzofuran-5-yl)-4-methylhex-4-enamido)thiazol-4-yl)acetate]
– | 22.5 µM | 22.5 µM | CCOC(=O)c1sc(NC(=O)CC/C(C)=C/Cc2c(O)c3c(c(C)c2OC)COC3=O)nc1C [Compound 5, (E)-Ethyl-2-(6-(4-hydroxy-6-methoxy-7-methyl-3-oxo-1,3-dihydroisobenzofuran-5-yl)-4-methylhex-4-enamido)-4-methylthiazole-5-carboxylate]
22.5 µM | 22.5 µM | 22.5 µM | COc1c(C)c2c(c(O)c1C/C=C(\C)CCC(=O)Nc1ncc(C)s1)C(=O)OC2 [Compound 2, (E)-6-(4-Hydroxy-6-methoxy-7-methyl-3-oxo-1,3-dihydroisobenzofuran-5-yl)-4-methyl-N-(5-methylthiazol-2-yl)hex-4-enamide]
